Data: publication PMC6961345 (Antiviral Chemistry & Chemotherapy, 2018)
Where “and” joins values, the source holds several entries; their conditions need not be identical. Equal entries are not always repeated. Entries after “also recorded” stand apart in the source; their conditions may differ. Where two headings read alike, the source gives them in different places.

Legend:
[1] = tested on: Differentiated NHBE cells; conditions: for enisamium uptake: 1000 µM, 2000 µM (Figure 2 legend)
[2] = tested on: influenza A/Brisbane/59/2007 (H1N1) virus; assay: Time-of-addition experiment in dNHBE cells; type: cell-based
[3] = tested on: influenza A/Brisbane/59/2007 (H1N1) virus; type: cell-based
[4] = tested on: influenza A/Brisbane/59/2007 (H1N1) virus; type: cell-based; remark: listed apart in the source
[5] = tested on: B/Texas/06/2011; assay: microbe, parasite or virus in culture; type: cell-based, influenza B virus; conditions: for EC90: two independent assays
[6] = tested on: A/Brisbane/59/2007 (H1N1); assay: microbe, parasite or virus in culture; type: cell-based, influenza A virus; conditions: for EC90: two independent assays
[7] = tested on: HA protein (A/Brisbane/59/2007); type: cell-based, influenza A virus
[8] = tested on: segment 7 viral, complementary, and messenger RNA (A/Brisbane/59/2007); type: cell-based, influenza A virus; conditions: 24 h incubation
[9] = tested on: influenza A and B viruses; assay: microbe, parasite or virus in culture; type: cell-based
[10] = tested on: Undifferentiated NHBE cells; conditions: 2000 µM enisamium chloride, 24 h
[11] = tested on: A/Vietnam/1203/2004 (H5N1); assay: microbe, parasite or virus in culture; type: cell-based, influenza A virus; conditions: for EC90: Influenza A virus, H5N1, 48 h
[12] = tested on: A/Tennessee/1-560/2009 (H1N1)pdm09; assay: microbe, parasite or virus in culture; type: cell-based, influenza A virus; conditions: for EC90: two independent assays
[13] = tested on: A/Perth/16/2009 (H3N2); assay: microbe, parasite or virus in culture; type: cell-based, influenza A virus; conditions: for EC90: two independent assays
[14] = tested on: A/Anhui/1/2013 (H7N9); assay: microbe, parasite or virus in culture; type: cell-based, influenza A virus; conditions: for EC90: Influenza A virus, H7N9, 48 h
[15] = tested on: viral M gene RNA (A/Brisbane/59/2007); type: cell-based, influenza A virus; conditions: 8, 12, 18 and 24 h
[16] = tested on: MDCK cells; conditions: 100 µM enisamium iodide, 24 h, n = 3 wells
[17] = CC50 divided by EC90, dNHBE cells

## C[n+]1ccc(C(=O)NCc2ccccc2)cc1 [enisamium, N-methyl-4-benzylcarbamidopyridinium]
[1]; 10 µM enisamium, 24 h
  Intracellular concentration of enisamium (mean ± SD): 36.8 ng/10^6 cells and 36.8 ± 3.9 ng/10^6 cells
  Permeability (mean ± SD): 1.40 ± 0.15%
[1]; 50 µM enisamium, 24 h
  Intracellular concentration of enisamium (mean ± SD): 213 ng/10^6 cells and 213 ± 34 ng/10^6 cells
  Permeability (mean ± SD): 1.62 ± 0.26%
[1]; 100 µM enisamium, 24 h
  Intracellular concentration of enisamium (mean ± SD): 410 ng/10^6 cells and 410 ± 77 ng/10^6 cells
  Permeability (mean ± SD): 1.56 ± 0.29%
[1]; 500 µM enisamium, 24 h
  Intracellular concentration of enisamium (mean ± SD): 1727 ng/10^6 cells and 1727 ± 108 ng/10^6 cells
  Permeability (mean ± SD): 1.31 ± 0.08%
[1]; 1000 µM enisamium, 24 h
  Intracellular concentration of enisamium (mean ± SD): 3009 ng/10^6 cells and 3009 ± 132 ng/10^6 cells
  Permeability (mean ± SD): 1.15 ± 0.05%
[1]; 2000 µM enisamium chloride, 24 h, n = 3 wells
  Concentration of enisamium, Intracellular (mean ± SD): 10,700 ± 1900 ng/10^6 cells
[1]; 10-1000 µM enisamium, 24 h
  Permeability, all concentrations tested: 1.1–1.6%
[1]; exposure 0.25 h
  enisamium uptake: 482 ng/10^6 cells
[1]; exposure 24 h
  enisamium uptake: 2732 ng/10^6 cells
[1]; ratio intracellular to initial input, 2000 µM enisamium chloride, 24 h
  Permeability (mean ± SD): 1.9% and 1.90 ± 0.20%
[2]
  inhibition of virus replication (virus yield reduction): 2.3–2.6 log10TCID50/ml
  reductions in virus titers: ≥ 100 fold
  virus yield reduction: 1.3 log10TCID50/ml and 0.7 log10TCID50/ml
[3]
  Antiviral activity in MDCK cells (plaque number/size, virus titers): no antiviral activity was found; also recorded: did not reduce; also recorded: ineffective
[4]; 100 and 500 µM, 24 h pretreatment
  antiviral effect at lower concentrations: did not appreciably show an antiviral effect
[4]; dNHBE cells
  intracellular concentration required for achieving an antiviral activity: exceeds 1885 ng/10^6 cells
[5]; [17]
  Selectivity index: 64
[5]; Influenza B virus, 48 h
  EC90: 105 µM
[5]
  EC90: 209 µM
[6]; [17]
  Selectivity index: 23
[6]; Influenza A virus, H1N1, 48 h
  EC90: 412 µM
[6]
  EC90: 466 µM
[7]
  amount of detectable HA protein: markedly decreased
[8]
  inhibition of viral RNA synthesis: nearly a complete inhibition
[9]; Influenza A virus, read-out: 90% effective (EC90) concentration range
  EC90: 157 to 439 µM
[9]; at certain concentrations, dNHBE cells
  reduction of virus titers: 100 fold
[9]; range over all viruses tested, dNHBE cells
  Selectivity index values (CC50 divided by EC90): 23- to 64 and > 20
[10]; n = 3 wells
  Concentration of enisamium, Intracellular (mean ± SD): 4110 ± 830 ng/10^6 cells
[10]; ratio intracellular to initial input
  Permeability (mean ± SD): 0.85 ± 0.21%
[11]
  Selectivity index: 25
  EC90: 400 µM
[12]; [17]
  Selectivity index: 34
[12]; Influenza A virus, H1N1, 48 h
  EC90: 233 µM
[12]
  EC90: 351 µM
[13]; [17]
  Selectivity index: 30
[13]; Influenza A virus, H3N2, 48 h
  EC90: 287 µM
[13]
  EC90: 375 µM
[14]
  Selectivity index: 24
  EC90: 410 µM
[15]
  viral M gene RNA versus untreated cells: lower
[16]
  Concentration of enisamium, Intracellular (mean ± SD): 27.9 ± 1.4 ng/10^6 cells

## CCC(CC)O[C@@H]1C=C(C(=O)O)C[C@H](N)[C@H]1NC(C)=O [oseltamivir carboxylate]
[4]
  inhibition of virus replication at 24 and 48 h postinfection: inhibited virus replication
[5]; Influenza B virus, 48 h
  EC90: < 1 µM
[6]; Influenza A virus, H1N1, 48 h
  EC90: < 1 µM
[11]
  EC90: < 1 µM
[12]; Influenza A virus, H1N1, 48 h
  EC90: < 1 µM
[13]; Influenza A virus, H3N2, 48 h
  EC90: < 1 µM
[14]
  EC90: < 1 µM
